Test results published in patent US9265189B2, “Method for reducing damage by harmful organisms in corn cultivation” (SUMITOMO CHEMICAL COMPANY, LIMITED, priority 2012, dated 2016).

Tests used:
Assay type in all cases: in vivo
[1] = test system: Diabrotica virgifera virgifera and Agriotes lineatus; experiment: Field test, lodge rate, clothianidin in-furrow, seed treated with thiuram and cyprosulfamide (Example 9); details: clothianidin 50 g/ha in-furrow spray 125 L/ha, 165 days after application, example in present tense
Source text: A chemical fertilizer (N:P:K=15:15:15) is applied to the soil surface of a cultivated land at 300 kg/ha, and the cultivated land is then plowed. 7 days after fertilization, for suppressing generation of weeds, the soil surface of the whole cultivated land is spray-treated with a mixed liquid containing thiencarbazone-methyl and isoxaflutole, each of which being a herbicide, at 150 L/ha so that the application amounts of thiencarbazone-methyl and isoxaflutole are 9.2 g/ha and 23 g/ha. 21 days after fertilization, using a pneumatic seeder (disk furrow opener) equipped with a power sprayer, a cultivated land is ditched at intervals of 75 cm to a depth of 5 cm from the soil surface, and the furrow is seeded with corn (Zea Mays; hybrid variety). The furrow is seeded at intervals of 20 cm using, as a seed of corn, one treated with thiuram and cyprosulfamide. A seeding density of corn is 70000 seeds/ha. […] 165 days after application of the aqueous suspension of clothianidin, the number of plants of corn lodged due to damage by Diabrotica virgifera virgifera and Agriotes lineatus in the furrows of the treatment section and the non-treatment section, for which the number of plants of corn germinated is investigated, is investigated, a lodge rate is calculated in accordance with the following equation, and then an average lodge rate for the four investigation sections is determined.

[2] = test system: Diabrotica virgifera virgifera and Agriotes lineatus; experiment: Field test, corn lodged due to damage by Diabrotica virgifera virgifera and Agriotes lineatus (Example 4); details: Example section 4: clothianidin 80 g/ha, in-furrow spray of Dantop 50WG 125 L/ha, corn DKC 5143 seed treated with Maxim XL, 165 days after application; non-treatment section 23
Protocol: Ammonium phosphate (N:P:K=12:52:0) and urea (N:P:K=46:0:0), each of which being a fertilizer, were applied to the soil surface of a cultivated land at 100 kg/ha and 260 kg/ha, respectively, and the cultivated land was plowed. 24 days after fertilization, using a pneumatic seeder (disk furrow opener) equipped with a power sprayer, a cultivated land was ditched at intervals of 75 cm to a depth of 5 cm from the soil surface, and the furrow was seeded with corn (Zea Mays, variety name: DKC 5143; hybrid variety, manufactured by Monsanto). The cultivated land was seeded at intervals of 20 cm using, as a corn seed, one treated with a mixed agent of metalaxyl-M and fludioxonil (trade name: Maxim XL, manufactured by Syngenta). A seeding density of corn was 66667 seeds/ha. […] 165 days after application of the clothianidin water dispersible granule, the number of plants of corn lodged due to damage by Diabrotica virgifera virgifera and Agriotes lineatus in the furrows of the example section 4 and the non-treatment section, for which the number of plants of corn germinated was investigated, was investigated, a lodge rate was calculated in accordance with the following equation, and then an average lodge rate for the four investigation sections was determined. […]

Agriotes spp. = experiment: Field test, corn plants damaged by Agriotes spp. after in-furrow spray (Example 1); details: Example section 1: clothianidin 50 g/ha, in-furrow spray of Dantop 50WG aqueous suspension 100 L/ha, corn DK 440, 35 days after application; non-treatment section 43
Protocol: Using a pneumatic seeder (disk furrow opener, manufactured by Gaspardo) equipped with a power sprayer (trade name: WJR 2525, manufactured by HONDA), a cultivated land was ditched at intervals of 75 cm to a depth of 3 cm from the soil surface, and the furrow was seeded with corn (Zea Mays, trade name: DK 440; hybrid variety, manufactured by Monsanto) at intervals of 13 cm. A seeding density of corn was 100000 seeds/ha. Then, the furrow was spray-treated with an aqueous suspension of a clothianidin water dispersible granule (using a 50% dispersible granule, trade name: Dantop 50WG, manufactured by Philagro) at 100 L/ha so that the application amount of clothianidin was 50 g/ha, and then a soil on the side of the furrow was gathered together to close the furrow. This was defined as an example section 1. For comparison, a non-treatment section, which was seeded with corn without application of a clothianidin water dispersible granule, was provided. […] 35 days after application of the clothianidin water dispersible granule, the number of plants of corn damaged by Agriotes spp. in each of the example section 1 and the non-treatment section was investigated, a damage plant rate was calculated in accordance with the following equation, and then an average damage plants rate of the four investigation sections was determined. […]

Compound: CN/C(=N\[N+](=O)[O-])NCc1cnc(Cl)s1 [clothianidin]
- Lodge rate compared to non-treatment section [1]: low lodge rate as compared to the non-treatment section
- Lodge rate (%) [2]: 4%
- Damage plant rate (%) (Agriotes spp.): 0%
